Measured values reported in the NIST ThermoML archive (doi:10.1016/j.fluid.2004.11.006).
± gives the expanded uncertainty stated by the source.

What was measured:
[1] = Solid-liquid equilibrium temperature; details: 101.3 kPa
[2] = Molar enthalpy of transition or fusion; details: Crystal; DSC

With `C1COCCOCCOCCOCCOCCO1` [1,4,7,10,13,16-hexaoxacyclooctadecane] the Solid-liquid equilibrium temperature ([1]; Crystal 1) was 311.76 ± 0.8 K.
With `C1COCCO1` [1,4-dioxane] the Solid-liquid equilibrium temperature ([1]; Crystal) was 285.08 ± 0.4 K.
For `CN1CCCC1=O` [N-methylpyrrolidone], the Solid-liquid equilibrium temperature ([1]; Crystal) was 249.68 ± 0.4 K and the “Molar enthalpy of transition or fusion” value [2] was 11 ± 0.38 kJ/mol.
